Measured values published in patent publication US10745731B2, “Recombinant production method” (Hoffmann-La Roche Inc., priority 2015, dated 2020).
Like-named read-outs stand apart in the source and are kept apart here.

What was measured:
[1] = test system: HEK293F cells; experiment: Transient gene expression in HEK293F cells: cell specific productivity of the expressed antibody; type: cell-based, human; conditions: for cell specific productivity with BAY11-7082 addition compared to the single treatment: 15 μM BAY11-7082 added 24 h after transfection; for specific productivity after 96 hours: none 2.01; for Mean cell specific productivity: untreated 1.71
Protocol: HEK293F cells were cultivated in F17 medium (Life Technologies) in shaker flasks at 36.5° C., 7.0% CO2 and 80% humidity in a shaker incubator (Kuhner, Mytron). Cells were split every three to four days and were cultivated no longer than five weeks. To avoid overgrowth and to keep them in the exponential phase of growth, viable cell densities (VCD) never exceeded 60*10^5 cells/mL.
(§1) Transient gene expression is a 5-7 days lasting procedure. The standard operating procedure of this expression system is applicable to shaker flasks with various volumes of cell culture ranging from 80 mL to 2 L. First, half of the cell culture volume is seeded at a viable cell density (VCD) of 8*10^5 cells/mL. After two days of cultivation, cells are split to a VCD of about 12*10^5 cells/mL. On the next day, cells are transfected with a polyethylene imine (PEI)-based transfection reagent at a VCD between 20*10^5 cells/mL and 25*10^5 cells/mL. 3 hours after transfection, the production enhancer (if any) is added. 24 h after transfection, a feeding solution and a glucose bolus is supplemented to avoid the limitation of nutrients. Depending on cell viability, which should not decrease below 50%, the supernatant is harvested five to seven days post transfection and subjected to antibody purification.
(§2) To compare transient gene expression rates always the same plasmids encoding for one distinct antibody were co-transfected.
(§3) To co-transfect two plasmids equimolarily, the ratio of the base pair number of one plasmid to the total base pair number was calculated and multiplied with the total amount of DNA (0.5 mg/L). Plasmid one has a size of 10530 bp and plasmid two has a size of 7184 bp and were solved in water to a final concentration of 1 mg/mL. For transfection of one liter cell culture, 297 μL of plasmid one and 203 μl of plasmid two were dissolved in 40 mL phosphate buffered saline (PBS) at room temperature. 1.25 mL JetPEI® solution was added and the solution was mixed well. After incubation for 10-15 min., the mixture was added to the cells. The cells were transfected in a batch containing the whole cell culture necessary for every experiment to avoid variance arising from different transfection efficiencies.
(§4) 80 mL of the transfected cell culture batch was added to a 125 ml shaker flask. For every experiment, two or three 125 mL shaker flasks were used as biological replicates and treated the same way. Three hours after transfection, cells were split into 125 mL shaker flasks and the cellular treatments with small molecules or ligands were started. Basal protein expression was determined by untreated control samples. To compare samples with the standard operating procedure, cells were also treated with VPA to a final concentration of 4 mM or 3 mM. VPA and its analogues were dissolved in double distilled water. […] Tumor necrosis factor (TNF) alpha was reconstituted with PBS supplemented with 0.1% BSA. Flagellin was dissolved in sterile double distilled water. The applied molecules were not added to the cultivation directly, but diluted in 16 mL medium pre-warmed to 36.5° C. and added to the cultivation thereafter.
(§5) 24 h after transfection a feeding solution at 36.5° C. and 3 mg/mL glucose were added to the cultivation.
(§6) To determine cell viability and viable cell density (VCD) 1 mL cultivation medium (cell suspension) was transferred into a Cedex low fouling sample cup. The cup was placed into a Vicell instrument (Beckman Coulter). The instrument mixes cells with trypan blue to stain dead cells. After analysis of 50 images VCD was calculated and viability was determined by calculation of the percentage of viable cell number in relation to the total cell number.
(§7) Total concentration of the transiently expressed antibody was determined by a turbidimetric test. One mL cell suspension was transferred into an Eppendorf cup and centrifuged for 10 min. at 10,000 rpm (9,300 g).

[2] = test system: HEK293F cells; experiment: Transient gene expression in HEK293F cells: IgG concentration / titer (turbidimetric test); type: cell-based, human; conditions: none=100; for relative IgG concentration: N=3; for relative titer: N=2
Protocol: as §1, §2, §3, §4, §5
as §7, with “g). The supernatant was transferred into a new cup and subjected to Cobas Integra 400 plus (Roche) analysis. With comparison to internal standard the absolute concentration was calculated.” for “g).”

[3] = test system: HDAC; experiment: in situ HDAC activity fluorimetric assay in HEK293F cells; type: cell-based, human; conditions: for HDACi: N=3, FIG. 3A; for HDAC inhibition: yes/no, summary table
Protocol: HDAC activity was determined by the in situ HDAC activity fluorimetric assay kit (Biovision) according to the manufacturer's instructions. HEK293F cells were suspended in F17 medium (Life Technologies) to a cell density of 5*10^5 cells/mL. One hundred micro liter culture was pipetted per well into a black ELISA plate. The plate was centrifuged at 1000 g for 5 min. The supernatant was discarded and the cells were resuspended in a reaction mix containing F17 medium, 1% HDAC substrate and the molecule tested towards HDAC inhibitory activity. 10 μM Trichostatin A was used as a positive control and the basal HDAC activity was determined by re-suspending the cells in F17 medium with 1% HDAC substrate. Furthermore, cells were resuspended in F17 medium without HDAC substrate as a background control. The HDAC activity assay was performed in triplicates for every sample as well as every control. The 96-well plate was incubated at 36.5° C., 80% humidity and 7% CO2 for one hour. During this time, the active HDACs deacetylate the HDAC substrate what releases the quenched fluorescent signal of the substrate. After incubation the fluorescent signal was analyzed by the infinite fluorescence plate reader (TECAN). The fluorescence signal of the samples and controls was normalized by subtracting the fluorescence signal of the background control. It is assumed that the fluorescent signal arising from deacetylation of the substrate directly correlates with HDAC activity.

[4] = test system: HEK293F cells; type: cell-based
Protocol: as §6

[5] = test system: HDAC; conditions: description from the literature; cited from earlier work

SMILES: CC/C=C(\C)C(=O)O [2M2P, trans-2-methyl 2-pentenoic acid]
- cell specific productivity with BAY11-7082 addition compared to the single treatment [1]: No reduction
- protein expression yields compared to the negative control ([1]; 3 mM, in words): clearly increased
- specific productivity after 96 hours ([1]; 3 mM, single treatment, N=3): 2.40 pg/cell/day
- activity at 3000 µM ([1]; Homo sapiens, HEK293F, 3 mM, 2M2P/Quisinostat combination study, none=100, N=3, read-out: relative cell specific productivity): 169%
- activity at 3000 µM ([1]; Homo sapiens, HEK293F, 3 mM, VPA/2M2P combination study, none=100, N=3, read-out: relative cell specific productivity): 169%
- activity at 3000 µM ([1]; Homo sapiens, HEK293F, 3 mM, none=100, N=3, FIG. 6A, read-out: relative cell specific productivity): 131%
- activity at 3000 µM ([1]; Homo sapiens, HEK293F, 3 mM, none=100, N=3, FIG. 9A, read-out: relative cell specific productivity): 131%
- activity at 3000 µM ([1]; Homo sapiens, HEK293F, 3 mM, single treatment, none=100, N=3, read-out: relative cell specific productivity): 144%
- activity at 3000 µM ([1]; Homo sapiens, HEK293F, 3 mM, transfected control=100, N=3, FIG. 3B, read-out: relative cell specific productivity): 191%
- activity at 2000 µM ([1]; Homo sapiens, HEK293F, employed concentration 2 mM, none=100, N=2, FIG. 4, read-out: relative cell specific productivity): 123%
- activity at 3000 µM ([1]; Homo sapiens, HEK293F, employed concentration 3 mM, none=100, N=2, FIG. 4, read-out: relative cell specific productivity): 196%
- Mean cell specific productivity ([1]; conc. 3 mM): 5.4 (3 mM) pg/cell/24 h
- relative IgG concentration ([2]; 3 mM, 2M2P/Quisinostat combination study): 146%
- relative IgG concentration ([2]; 3 mM, VPA/2M2P combination study): 146%
- relative IgG concentration ([2]; 3 mM, FIG. 6B): 128%
- relative IgG concentration ([2]; 3 mM, FIG. 9B): 128%
- relative titer ([2]; 2M2P concentration 3 mM): 165%
- relative titer ([2]; 2M2P concentration 6 mM): 257%
- relative titer ([2]; 2M2P concentration 7 mM): 258%
- relative titer ([2]; 2M2P concentration 8 mM): 172%
- relative titer ([2]; 2M2P concentration 9 mM): 120%
- relative titer ([2]; 2M2P concentration 10 mM): 42%
- relative titer ([2]; 2M2P concentration 11 mM): 0%
- HDACi ([3]; 3 mM): 9.4%
- HDAC inhibition [3]: no
- toxicity (remark in titer cell) ([4]; human, 11 mM): toxic
- HDAC inhibitory activity [5]: very weak to no HDAC inhibitory activity

SMILES: Cl.Cn1cc(CNCC2CCN(c3ncc(C(=O)NO)cn3)CC2)c2ccccc21 [Quisinostat]
- specific productivity after 96 hours ([1]; 300 nM, single treatment, N=3): 3.89 pg/cell/day
- cell specific productivity with BAY11-7082 addition compared to the single treatment [1]: significantly reduced
- activity at 0.3 µM ([1]; Homo sapiens, HEK293F, 300 nM, 2M2P/Quisinostat combination study, none=100, N=3, read-out: relative cell specific productivity): 258%
- activity at 0.3 µM ([1]; Homo sapiens, HEK293F, 300 nM, VPA/Quisinostat combination study, none=100, N=3, read-out: relative cell specific productivity): 258%
- activity at 0.3 µM ([1]; Homo sapiens, HEK293F, 300 nM, single treatment, none=100, N=3, read-out: relative cell specific productivity): 218%
- activity at 0.3 µM ([1]; Homo sapiens, HEK293F, 300 nM, transfected control=100, N=3, FIG. 3B, read-out: relative cell specific productivity): 339%
- activity at 0.3 µM ([1]; Homo sapiens, HEK293F, employed concentration 300 nM, none=100, N=2, FIG. 2B, read-out: relative cell specific productivity): 279%
- Mean cell specific productivity ([1]; conc. 300 mM (so in the source)): 1.71 (300 mM) pg/cell/24 h
- Effect on titer/SPR ([1]; summary table, in words): strong
- relative IgG concentration ([2]; 300 nM, 2M2P/Quisinostat combination study): 169%
- relative IgG concentration ([2]; 300 nM, VPA/Quisinostat combination study): 169%
- HDACi ([3]; 300 nM): 69%
- HDAC inhibition [3]: yes
- growth inhibition and cell death ([4]; in contrast to other HDACi tested): induce growth inhibition and cell death
- HDAC class / isoform selectivity [5]: very potent broad spectrum HDAC inhibitor with highest potency towards HDAC 1, 2, 4, and 11
